Active and inactive are the calls of the source. For most assays here, no stated cut-off is given here; in the data, actives have a measured IC50 and inactives only a lower limit.
Assays:
[1] = target: DNA damage-inducible transcript 3 protein (Mus musculus, UniProt P35639); assay type: functional, Cricetulus griseus
[2] = target: T1, Voltage-gated N-type calcium channel alpha-1B subunit/Amyloid beta A4 precursor protein-binding family A member 1 (Homo sapiens, UniProt Q00975+Q02410); assay type: protein assay
[3] = target: T1, Voltage-gated N-type calcium channel alpha-1B subunit/Amyloid beta A4 precursor protein-binding family A member 1; assay type: protein assay; remark: listed apart in the source
[4] = target: T2, Heat shock factor protein 1 (Mus musculus, UniProt P38532); experiment: HSF1 potentiators in luciferase reporter cells, confirmation, cell-based, NIH3T3, luminescence, dose retest (AID 435004); assay type: functional;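 further: stress induced by proteasome inhibitor MG132 added 30 min after compound; luciferase reporter driven by HSF1 response element in NIH3T3 cells; actives raise luminescence as potentiators of the MG132 stress response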
T2 sequence (P38532 whole entry): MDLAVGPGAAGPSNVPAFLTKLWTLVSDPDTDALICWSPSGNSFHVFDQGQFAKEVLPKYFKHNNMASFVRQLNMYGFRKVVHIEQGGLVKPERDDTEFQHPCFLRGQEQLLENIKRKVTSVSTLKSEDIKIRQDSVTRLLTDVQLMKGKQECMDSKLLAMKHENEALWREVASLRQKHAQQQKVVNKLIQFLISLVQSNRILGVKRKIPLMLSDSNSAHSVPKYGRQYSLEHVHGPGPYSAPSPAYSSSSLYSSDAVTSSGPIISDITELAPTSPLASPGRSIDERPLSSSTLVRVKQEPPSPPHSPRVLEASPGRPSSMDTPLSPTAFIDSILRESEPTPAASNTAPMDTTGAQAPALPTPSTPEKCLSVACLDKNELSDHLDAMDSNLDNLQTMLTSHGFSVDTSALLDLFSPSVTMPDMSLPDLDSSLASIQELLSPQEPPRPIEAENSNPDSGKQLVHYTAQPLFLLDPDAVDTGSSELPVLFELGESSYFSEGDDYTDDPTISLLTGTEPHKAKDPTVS

[5] = target: T1, Voltage-gated N-type calcium channel alpha-1B subunit/Amyloid beta A4 precursor protein-binding family A member 1; experiment: disruptors of Mint-PDZ/N-type channel peptide interaction – biochemical, HTRF, set 2, SAR follow-up (AID 434980); assay type: functional
[6] = target: T1, Voltage-gated N-type calcium channel alpha-1B subunit/Amyloid beta A4 precursor protein-binding family A member 1; experiment: disruptors of Mint-PDZ/N-type channel peptide interaction – biochemical, HTRF, SAR follow-up (AID 2489); assay type: functional
Coagulation factor XII = target: T3, Coagulation factor XII (Homo sapiens, UniProt P00748); assay type: functional;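 further: activated factor XIIa alpha cleaving a fluorogenic AMC peptide substrate; inhibitor potency from loss of enzyme activity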
T3 sequence (P00748 whole entry): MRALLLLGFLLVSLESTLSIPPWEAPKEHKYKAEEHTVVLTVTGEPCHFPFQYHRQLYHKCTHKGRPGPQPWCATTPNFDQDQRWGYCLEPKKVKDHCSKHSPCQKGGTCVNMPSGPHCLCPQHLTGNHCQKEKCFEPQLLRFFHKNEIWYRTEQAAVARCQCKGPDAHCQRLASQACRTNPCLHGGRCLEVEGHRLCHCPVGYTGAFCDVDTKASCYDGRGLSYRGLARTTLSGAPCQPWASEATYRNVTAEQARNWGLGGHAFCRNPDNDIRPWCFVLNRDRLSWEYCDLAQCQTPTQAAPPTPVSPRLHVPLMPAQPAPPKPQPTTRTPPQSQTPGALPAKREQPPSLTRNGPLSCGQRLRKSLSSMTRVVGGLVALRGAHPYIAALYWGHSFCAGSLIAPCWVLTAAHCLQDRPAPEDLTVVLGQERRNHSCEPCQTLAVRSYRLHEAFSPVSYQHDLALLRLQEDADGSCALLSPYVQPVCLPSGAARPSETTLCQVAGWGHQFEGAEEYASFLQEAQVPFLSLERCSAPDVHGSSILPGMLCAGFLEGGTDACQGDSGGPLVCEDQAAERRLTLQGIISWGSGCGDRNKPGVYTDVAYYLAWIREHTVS

[7] = target: T4, Intestinal-type alkaline phosphatase (Homo sapiens, UniProt P09923); experiment: Dose Response confirmation of uHTS hits from a small molecule inhibitors of human intestinal alkaline phosphatase via a luminescent assay. [Related pubchem assays (depositor defined):AID2544, AID2574]; assay type: functional
[8] = target: T4, Intestinal-type alkaline phosphatase; experiment: human intestinal alkaline phosphatase activators, dose response, biochemical, luminescence, uHTS hits (AID 463120); assay type: functional
[9] = target: Glyceraldehyde-3-phosphate dehydrogenase (Homo sapiens, UniProt P04406)
[10] = target: Alkaline phosphatase, placental type (Homo sapiens, UniProt P05187); experiment: PLAP enzyme inhibitors, confirmation, biochemical, luminescence (AID 1512); assay type: functional
[11] = target: T5, Alkaline phosphatase, tissue-nonspecific isozyme (Homo sapiens, UniProt P05186); experiment: human TNAP enzyme inhibitors, SAR follow-up, biochemical, luminescent, dose response (AID 1056)
T5 sequence (P05186 whole entry): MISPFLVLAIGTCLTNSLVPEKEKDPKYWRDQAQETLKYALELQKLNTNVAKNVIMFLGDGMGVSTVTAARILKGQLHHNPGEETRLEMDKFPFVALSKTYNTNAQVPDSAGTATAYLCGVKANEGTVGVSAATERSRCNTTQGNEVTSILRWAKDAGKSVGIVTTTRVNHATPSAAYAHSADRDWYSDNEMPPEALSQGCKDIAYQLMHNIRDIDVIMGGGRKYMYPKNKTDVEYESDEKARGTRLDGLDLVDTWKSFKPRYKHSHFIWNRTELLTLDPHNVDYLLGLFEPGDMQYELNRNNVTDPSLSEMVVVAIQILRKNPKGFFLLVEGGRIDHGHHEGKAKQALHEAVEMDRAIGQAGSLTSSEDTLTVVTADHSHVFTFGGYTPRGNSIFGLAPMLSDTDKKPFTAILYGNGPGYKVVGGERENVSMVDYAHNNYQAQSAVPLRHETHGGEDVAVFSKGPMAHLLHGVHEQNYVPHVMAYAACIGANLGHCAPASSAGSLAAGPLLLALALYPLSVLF

T1 sequence (Q00975 whole entry): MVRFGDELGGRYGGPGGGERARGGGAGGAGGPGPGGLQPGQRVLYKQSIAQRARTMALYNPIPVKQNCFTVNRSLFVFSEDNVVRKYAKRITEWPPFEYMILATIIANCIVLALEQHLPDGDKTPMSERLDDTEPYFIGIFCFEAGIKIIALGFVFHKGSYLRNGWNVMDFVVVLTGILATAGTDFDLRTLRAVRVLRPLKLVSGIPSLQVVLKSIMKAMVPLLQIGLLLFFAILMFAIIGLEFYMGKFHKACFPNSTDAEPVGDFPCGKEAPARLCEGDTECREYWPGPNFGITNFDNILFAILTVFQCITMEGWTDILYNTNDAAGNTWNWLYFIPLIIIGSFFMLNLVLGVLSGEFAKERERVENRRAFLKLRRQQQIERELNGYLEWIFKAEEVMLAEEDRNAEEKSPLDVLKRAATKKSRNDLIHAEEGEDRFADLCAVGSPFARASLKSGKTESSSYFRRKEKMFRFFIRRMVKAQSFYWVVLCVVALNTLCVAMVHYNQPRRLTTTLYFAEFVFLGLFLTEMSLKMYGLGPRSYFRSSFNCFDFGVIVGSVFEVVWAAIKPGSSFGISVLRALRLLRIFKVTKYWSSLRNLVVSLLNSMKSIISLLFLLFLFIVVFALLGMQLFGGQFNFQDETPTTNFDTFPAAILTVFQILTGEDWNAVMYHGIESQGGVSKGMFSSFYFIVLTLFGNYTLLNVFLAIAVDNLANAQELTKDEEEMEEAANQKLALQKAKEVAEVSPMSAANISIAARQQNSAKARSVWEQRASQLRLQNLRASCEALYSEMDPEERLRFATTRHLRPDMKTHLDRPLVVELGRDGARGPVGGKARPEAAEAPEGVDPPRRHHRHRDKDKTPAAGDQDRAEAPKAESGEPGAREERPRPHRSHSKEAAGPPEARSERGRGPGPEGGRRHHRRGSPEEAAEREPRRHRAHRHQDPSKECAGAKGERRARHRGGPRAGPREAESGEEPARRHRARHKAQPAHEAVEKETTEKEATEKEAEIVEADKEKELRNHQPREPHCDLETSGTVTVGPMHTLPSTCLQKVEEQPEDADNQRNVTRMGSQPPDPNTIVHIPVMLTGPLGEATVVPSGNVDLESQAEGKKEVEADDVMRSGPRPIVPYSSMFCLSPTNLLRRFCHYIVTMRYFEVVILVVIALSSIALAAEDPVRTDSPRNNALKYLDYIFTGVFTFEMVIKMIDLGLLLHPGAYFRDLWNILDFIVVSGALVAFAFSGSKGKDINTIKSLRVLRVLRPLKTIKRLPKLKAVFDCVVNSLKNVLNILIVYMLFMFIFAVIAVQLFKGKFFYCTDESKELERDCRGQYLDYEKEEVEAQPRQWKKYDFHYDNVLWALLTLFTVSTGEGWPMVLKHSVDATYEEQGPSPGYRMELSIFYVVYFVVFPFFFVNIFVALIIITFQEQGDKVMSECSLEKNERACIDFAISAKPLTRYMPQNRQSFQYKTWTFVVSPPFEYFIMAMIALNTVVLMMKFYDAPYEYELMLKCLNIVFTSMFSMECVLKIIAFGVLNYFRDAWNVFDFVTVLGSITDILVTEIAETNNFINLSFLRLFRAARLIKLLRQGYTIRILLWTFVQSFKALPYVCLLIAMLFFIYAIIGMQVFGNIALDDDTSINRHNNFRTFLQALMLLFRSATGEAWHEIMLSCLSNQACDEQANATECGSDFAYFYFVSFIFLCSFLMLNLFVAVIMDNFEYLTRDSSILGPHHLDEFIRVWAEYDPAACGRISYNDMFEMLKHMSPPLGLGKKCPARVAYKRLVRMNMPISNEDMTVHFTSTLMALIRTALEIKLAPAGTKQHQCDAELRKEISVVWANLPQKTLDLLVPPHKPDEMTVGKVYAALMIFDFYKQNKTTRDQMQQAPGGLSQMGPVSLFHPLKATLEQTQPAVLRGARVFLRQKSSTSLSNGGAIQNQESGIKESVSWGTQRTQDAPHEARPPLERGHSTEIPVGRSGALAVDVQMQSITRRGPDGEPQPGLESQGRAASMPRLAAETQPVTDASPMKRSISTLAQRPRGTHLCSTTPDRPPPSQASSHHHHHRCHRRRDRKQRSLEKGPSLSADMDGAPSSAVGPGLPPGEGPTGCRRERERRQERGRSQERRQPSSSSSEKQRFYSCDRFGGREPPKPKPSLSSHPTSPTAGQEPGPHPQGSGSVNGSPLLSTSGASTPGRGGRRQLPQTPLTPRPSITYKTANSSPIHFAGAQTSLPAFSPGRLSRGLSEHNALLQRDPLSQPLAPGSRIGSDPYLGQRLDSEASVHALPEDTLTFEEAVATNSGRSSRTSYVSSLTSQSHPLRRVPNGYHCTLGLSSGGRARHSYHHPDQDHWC
T1 sequence (Q02410 whole entry): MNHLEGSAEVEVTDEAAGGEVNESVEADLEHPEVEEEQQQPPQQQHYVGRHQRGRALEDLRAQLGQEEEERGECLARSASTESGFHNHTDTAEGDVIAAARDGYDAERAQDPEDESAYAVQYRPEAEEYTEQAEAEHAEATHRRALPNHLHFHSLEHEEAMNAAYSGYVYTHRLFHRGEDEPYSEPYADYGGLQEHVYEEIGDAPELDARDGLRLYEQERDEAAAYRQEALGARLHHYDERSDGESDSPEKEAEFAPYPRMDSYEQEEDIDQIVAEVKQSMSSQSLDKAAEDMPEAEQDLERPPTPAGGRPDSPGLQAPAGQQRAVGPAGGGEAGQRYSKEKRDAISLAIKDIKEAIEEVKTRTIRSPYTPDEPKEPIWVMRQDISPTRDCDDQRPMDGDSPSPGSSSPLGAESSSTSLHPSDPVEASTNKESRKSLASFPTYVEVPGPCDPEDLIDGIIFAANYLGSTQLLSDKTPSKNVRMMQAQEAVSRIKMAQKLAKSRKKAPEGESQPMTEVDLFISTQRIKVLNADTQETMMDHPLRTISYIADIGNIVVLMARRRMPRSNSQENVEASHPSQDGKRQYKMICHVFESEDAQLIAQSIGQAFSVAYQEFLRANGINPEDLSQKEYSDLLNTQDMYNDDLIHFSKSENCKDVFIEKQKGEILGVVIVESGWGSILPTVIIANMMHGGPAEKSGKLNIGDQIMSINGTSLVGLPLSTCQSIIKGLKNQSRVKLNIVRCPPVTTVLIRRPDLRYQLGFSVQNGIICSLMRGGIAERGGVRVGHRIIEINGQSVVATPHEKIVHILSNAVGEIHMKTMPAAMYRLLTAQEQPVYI
Chain of DNA damage-inducible transcript 3 protein (P35639 whole entry): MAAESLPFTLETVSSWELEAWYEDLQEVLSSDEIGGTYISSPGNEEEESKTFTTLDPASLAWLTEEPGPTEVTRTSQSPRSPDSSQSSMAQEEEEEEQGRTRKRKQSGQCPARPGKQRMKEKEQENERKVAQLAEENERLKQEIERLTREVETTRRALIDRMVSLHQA
T4 sequence (P09923 whole entry): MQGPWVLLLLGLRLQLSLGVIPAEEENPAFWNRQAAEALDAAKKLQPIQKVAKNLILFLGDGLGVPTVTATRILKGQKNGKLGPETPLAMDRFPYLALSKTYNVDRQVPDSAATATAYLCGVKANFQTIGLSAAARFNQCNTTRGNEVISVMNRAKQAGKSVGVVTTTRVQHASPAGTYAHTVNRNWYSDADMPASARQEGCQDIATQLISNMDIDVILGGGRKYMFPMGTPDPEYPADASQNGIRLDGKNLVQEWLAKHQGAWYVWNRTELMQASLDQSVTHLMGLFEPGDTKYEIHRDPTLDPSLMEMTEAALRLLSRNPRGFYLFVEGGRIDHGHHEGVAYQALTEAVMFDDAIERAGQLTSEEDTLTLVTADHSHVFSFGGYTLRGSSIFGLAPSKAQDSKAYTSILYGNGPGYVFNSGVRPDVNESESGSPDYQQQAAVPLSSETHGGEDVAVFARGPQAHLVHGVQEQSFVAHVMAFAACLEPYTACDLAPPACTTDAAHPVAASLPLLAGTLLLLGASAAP
Chain of Glyceraldehyde-3-phosphate dehydrogenase (P04406 whole entry): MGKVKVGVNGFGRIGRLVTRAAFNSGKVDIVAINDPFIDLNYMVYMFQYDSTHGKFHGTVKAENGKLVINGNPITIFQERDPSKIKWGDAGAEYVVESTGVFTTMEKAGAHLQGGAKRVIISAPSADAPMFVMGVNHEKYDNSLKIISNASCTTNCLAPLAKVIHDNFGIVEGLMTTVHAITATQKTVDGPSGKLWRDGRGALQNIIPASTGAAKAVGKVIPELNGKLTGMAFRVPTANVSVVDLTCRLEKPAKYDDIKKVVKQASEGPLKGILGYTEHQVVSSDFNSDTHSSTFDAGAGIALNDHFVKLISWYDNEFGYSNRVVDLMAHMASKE
Chain of Alkaline phosphatase, placental type (P05187 whole entry): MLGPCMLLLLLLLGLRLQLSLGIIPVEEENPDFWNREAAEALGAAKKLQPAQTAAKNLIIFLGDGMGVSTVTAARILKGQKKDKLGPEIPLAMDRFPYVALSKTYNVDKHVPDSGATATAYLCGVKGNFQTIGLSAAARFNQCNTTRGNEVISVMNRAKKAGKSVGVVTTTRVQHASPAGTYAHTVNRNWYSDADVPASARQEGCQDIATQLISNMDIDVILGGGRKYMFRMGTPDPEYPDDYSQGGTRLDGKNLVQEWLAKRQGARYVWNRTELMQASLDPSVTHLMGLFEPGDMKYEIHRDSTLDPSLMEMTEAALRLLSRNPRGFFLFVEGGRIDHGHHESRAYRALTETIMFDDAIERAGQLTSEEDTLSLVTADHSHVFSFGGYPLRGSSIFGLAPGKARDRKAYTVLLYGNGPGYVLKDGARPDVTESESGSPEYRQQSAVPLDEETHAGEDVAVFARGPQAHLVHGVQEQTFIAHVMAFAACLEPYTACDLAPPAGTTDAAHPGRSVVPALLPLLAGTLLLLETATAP

## CCC(CC)c1nnc(NC(=O)c2c(C)nn(Cc3ccccc3Cl)c2C)s1
[1]
  Absolute IC50 (CHOP): < 10 µM

## COc1cccc2cc(C(=O)Nc3ccc(S(=O)(=O)NCC4CCCO4)cc3)c(=O)oc12 (stereo not given)
[2]
  IC50: > 56.8 µM (not active)
[3]
  IC50: > 50 µM (inactive)

## C=CCn1c(CCNC(=O)c2ccc(Cl)c(Cl)c2)nnc1SCCOc1ccc(OC)cc1
[4]
  EC50: 16.8 µM (active)
[1]
  Absolute IC50 (CHOP): 10 µM

## Cc1ccc(N2C(=O)C3C(C2=O)C2(C)C=CC3(C)O2)cc1 (stereo not given)
[5]
  IC50: > 56.8 µM (inactive)
[6]
  IC50: 11.5 µM (active)

## O=C1CC(N2CCN(Cc3ccc(Cl)cc3)CC2)C(=O)N1CCc1ccccc1 (stereo not given)
Coagulation factor XII
  IC50: > 50 µM (inactive)

## CCc1nnc(NC(=O)CSc2nnc(C)c(=O)n2N)s1
[7]
  IC50: > 100 µM (inactive)
[8]
  EC50: > 100 µM (inactive)

## COc1ccccc1-c1nnc(SCC(=O)Nc2ccc(C)c(C)c2)[nH]1
[9]
  IC50: > 100 µM (not active)
[10]
  IC50: > 100 µM (inactive)
[11]
  IC50: > 100 µM (inactive)

## O=C1NC(=O)N(c2ccccc2)C(=O)/C1=C/c1ccc(Sc2ccccc2)o1
[2]
  IC50: 35.9 µM (active)
[3]
  IC50: 34.4 µM (active)
